Measured values taken from patent publication US20170008888A1 (KYORIN PHARMACEUTICAL CO., LTD., priority 2014, published 2017).
Where two headings read alike, the source gives them in different places.

How the values were obtained:
[1] = tested on: human Th17 cells; test: Cytokine response by in vitro-polarized human Th17 cells stimulated with PMA/ionomycin; format: cell-based; conditions: 10 μM compound, PMA/ionomycin 20 h
Method: In vitro differentiation of human Th17 cells: Human CD4+ T cells (isolated as described in protocol A) were polarized into Th17 cells as follows: Tissue culture-treated 100 mm plates (Corning, Corning, N.Y.) were coated with 10 μg/ml anti-human CD3 clone OKT3 antibody overnight at 4° C. Polarization was initiated by seeding approximately 2-3 e7 human CD4+ T cells onto the anti-CD3 plates in Polarization media consisting of: RPMI 1640 medium (Lonza, Allendale, N.J.) supplemented with 10% (v/v) charcoal-dextran treated, heat inactivated FBS (Omega Scientific, Tarzana, Calif.), 0.05 mM 2-Mercaptoethanol (Sigma-Aldrich, St. Louis, Mo.), and 1×Pen/Strep Amphotericin B (Lonza), with added recombinant human IL-23 (40 ng/ml) and anti-CD28 clone CD28.2 antibody (2 μg/ml); all recombinant human cytokines and anti-human neutralizing antibodies were purchased from eBioscience (San Diego, Calif.). Cells were incubated in the above Polarization media for 3 days at 37° C. in a humidified atmosphere at 5% CO2. After 3 days, the Polarization media was replaced with Maintenance media, consisting of RPMI 1640/FBS/2-Mercaptoethanol/Pen/Strep Amphotericin B supplemented with recombinant human IL-23 (40 ng/ml) alone, and the cells were re-plated onto regular tissue-culture-treated plates (not anti-CD3 coated). Cells were incubated in the Maintenance media for an additional 3 days at 37° C. in a humidified atmosphere at 5% CO2.
Inhibition of PMA/ionomycin-stimulated cytokine response by in vitro-differentiated human Th17 cells: Human Th17 cells, generated as described above, were seeded at 2e6 cells/ml in RPMI 1640 containing 10% (v/v) charcoal-dextran treated, heat inactivated FBS (Omega Scientific, Tarzana, Calif.), 0.05 mM 2-Mercaptoethanol (Sigma-Aldrich, St. Louis, Mo.), and 1×Pen/Strep Amphotericin B (Lonza, Allendale, N.J.). Cells were pre-treated with test compounds (10 μM) for 1 h at 37° C. in a humidified atmosphere at 5% CO2. Cells were then stimulated with 50 ng/ml phorbol 12-myristate 13-acetate (PMA) (Sigma-Aldrich, St. Louis, Mo.)+1 μg/ml ionomycin (Life Technologies, Grand Island, N.Y.) for 20 h at 37° C. in a humidified atmosphere at 5% CO2. Supernatant was collected and analyzed using Bio-Plex Pro Human Th17 Cytokine 15-Plex Panel (Bio-Rad Laboratories, Hercules, Calif.) as per manufacturer's protocols. Magnetic beads were read on the Bio-Plex MAGPIX multiplex reader instrument using the accompanying xPONENT 4.2 acquisition software (Bio-Rad Laboratories). Data were analyzed via the Bio-Plex Manager software v6.1 (Bio-Rad Laboratories). Cytokine secretion levels from Th17 cells treated with 0.1% DMSO+Stimulation were normalized to 100%.
IL-1β, IL-25, and IL-33 were below the limit of detection under conditions used. The concentrations of the observed analytes from top to bottom, as listed, are as follows: 8899, 567, 174, 99, 10380, 511, 239, 548, 81, 966, 504, and 76223 pg/ml.

[2] = tested on: primary asthmatic human bronchial epithelial cells; test: IL-17A- or IL-17F-mediated cytokine response by primary asthmatic human bronchial epithelial cells; format: cell-based; conditions: Epithelial cell, 48 h, 48 h
Method: The virally immortalized, normal human bronchial epithelial cell line BEAS-2B was purchased from ATCC (Manassas, Va.). Primary bronchial epithelial cells isolated from a patient diagnosed with asthma were obtained from Lonza (Allendale, N.J.). Both cells were maintained in complete Bronchial Epithelial Cell Growth Medium (BEGM) (Lonza). Cells were seeded at 1e5 cells/ml and incubated at 37° C. in a humidified atmosphere at 5% CO2 overnight to adhere. Cells were pre-treated with test compounds (10 μM down by ⅕ in a 3- or 4-point serial dilution series) for 1 h at 37° C. in a humidified atmosphere at 5% CO2. DMSO at a final concentration of 0.1% served as the non-inhibited control. Budesonide (Selleck Chemicals, Houston, Tex.), a clinically approved glucocorticoid steroid for the treatment of asthma, was tested as a positive control at 0.25 μM. Cells were stimulated with 50 ng/ml of either human recombinant IL-17A or IL-17F (eBioscience, San Diego, Calif.), for 48 h. Supernatant was then collected and analyzed for cytokine concentrations using the Bio-Plex Pro Human Cytokine 17-Plex Panel (Bio-Rad Laboratories, Hercules, Calif.) according to the manufacturer's instructions. Magnetic beads were measured on the Bio-Plex MAGPIX multiplex reader instrument using the accompanying xPONENT 4.2 acquisition software (Bio-Rad Laboratories). Data were analyzed via the Bio-Plex Manager software v6.1 (Bio-Rad Laboratories). For the primary asthmatic bronchial epithelial cells, five (+IL-17F) to thirteen (+IL-17A) cytokines were in range of detection under the conditions used. […] Select cytokines were analyzed for comparison using the BEAS-2B cell line.
BLQ: cytokine levels were below limits of quantitation.

Work on `CCOc1cc(C(=O)N2CC[C@@H](N(C)C)C2)ccc1Nc1cc2c(cn1)N(C)C(=O)c1ccccc1N2C` [Compound 115] yielded an inhibition at 10 µM ([1]; read-out: Percent inhibition of IFNγ (relative to DMSO control)) of 18.4%, an inhibition at 10 µM ([1]; read-out: Percent inhibition of IL-4 (relative to DMSO control)) of 1.5% and an inhibition at 10 µM ([1]; read-out: Percent inhibition of IL-6 (relative to DMSO control)) of 92.5%. For the same molecule, the inhibition at 10 µM ([1]; read-out: Percent inhibition of IL-10 (relative to DMSO control)) was 80.1%, the inhibition at 10 µM ([1]; read-out: Percent inhibition of IL-17A (relative to DMSO control)) was 68.3% and the inhibition at 10 µM ([1]; read-out: Percent inhibition of IL-17F (relative to DMSO control)) was 83.5%. The inhibition at 10 µM ([1]; read-out: Percent inhibition of IL-21 (relative to DMSO control)) was -86.1%, the inhibition at 10 µM ([1]; read-out: Percent inhibition of IL-22 (relative to DMSO control)) was 75.7% and the inhibition at 10 µM ([1]; read-out: Percent inhibition of IL-23 (relative to DMSO control)) was -30.7%. The inhibition at 10 µM ([1]; read-out: Percent inhibition of IL-31 (relative to DMSO control)) was 3.4%, the inhibition at 10 µM ([1]; read-out: Percent inhibition of TNFα (relative to DMSO control)) was 57.1% and the inhibition at 10 µM ([1]; read-out: Percent inhibition of sCD40L (relative to DMSO control)) was 53.7%. It also gave an EC50 ([2]; +50 ng/ml IL-17A, read-out: EC50 values (μM), G-CSF) of 0.66 µM, an EC50 ([2]; +50 ng/ml IL-17A, read-out: EC50 values (μM), GM-CSF) of 1.39 µM and an EC50 ([2]; +50 ng/ml IL-17A, read-out: EC50 values (μM), IFN-γ) greater than 10 µM. For the same molecule, the EC50 ([2]; +50 ng/ml IL-17A, read-out: EC50 values (μM), IL-1β) was 0.95 µM, the EC50 ([2]; +50 ng/ml IL-17A, read-out: EC50 values (μM), IL-2) was 5.31 µM and the EC50 ([2]; +50 ng/ml IL-17A, read-out: EC50 values (μM), IL-6) was 0.16 µM. It also gave an EC50 ([2]; +50 ng/ml IL-17A, read-out: EC50 values (μM), IL-8) of 0.15 µM, an EC50 ([2]; +50 ng/ml IL-17A, read-out: EC50 values (μM), MCP-1) of 6.1 µM and an EC50 ([2]; +50 ng/ml IL-17F, read-out: EC50 values (μM), G-CSF) of 0.21 µM. It also gave an EC50 ([2]; +50 ng/ml IL-17F, read-out: EC50 values (μM), IFN-γ) of 0.34 µM, an EC50 ([2]; +50 ng/ml IL-17F, read-out: EC50 values (μM), IL-1β) of 0.38 µM and an EC50 ([2]; +50 ng/ml IL-17F, read-out: EC50 values (μM), IL-6) of 0.34 µM. For the same molecule, the EC50 ([2]; +50 ng/ml IL-17F, read-out: EC50 values (μM), IL-8) was 0.28 µM.
